According to article PMC4823724 (Scientific Reports, 2016):

Experiments:
RpfG [1] = system: RpfG
RpfG [2] = system: RpfG; remark: listed apart in the source

Sequence of RpfG (G7TEN6 1-378): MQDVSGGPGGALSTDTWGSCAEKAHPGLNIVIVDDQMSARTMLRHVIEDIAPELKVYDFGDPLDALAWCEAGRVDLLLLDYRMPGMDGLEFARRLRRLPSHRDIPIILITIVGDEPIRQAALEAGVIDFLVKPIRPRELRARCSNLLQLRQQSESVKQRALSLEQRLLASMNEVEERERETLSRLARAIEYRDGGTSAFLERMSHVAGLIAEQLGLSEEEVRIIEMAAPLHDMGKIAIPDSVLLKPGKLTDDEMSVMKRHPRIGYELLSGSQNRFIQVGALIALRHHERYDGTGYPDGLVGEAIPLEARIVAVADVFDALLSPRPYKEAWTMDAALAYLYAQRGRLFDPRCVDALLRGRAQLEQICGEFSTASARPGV

Compound: O=[N+]([O-])c1ccc(OP(=O)(O)Oc2ccc([N+](=O)[O-])cc2)cc1 [bis(p-nitrophenyl) phosphate]
- colorimetric phosphodiesterase assay at 410 nm (RpfG [1]): RpfG efficiently converted bis(p-nitrophenyl) phosphate into p-nitrophenol

Compound: Nc1nc2c(ncn2[C@@H]2O[C@@H]3COP(=O)(O)O[C@H]4[C@@H](O)[C@H](n5cnc6c(=O)[nH]c(N)nc65)O[C@@H]4COP(=O)(O)O[C@H]3[C@H]2O)c(=O)[nH]1 [c-di-GMP]
- HPLC phosphodiesterase assay (RpfG [2]): degraded product pGpG was produced when RpfG was incubated with c-di-GMP
